Assay [1] addresses T1, Full length DGKα (D21-10BG, SignalChem) (Homo sapiens, UniProt P23743).
T1 construct: Full length DGKα (D21-10BG, SignalChem); purchased SignalChem D21-10BG
As to the kind of experiment: Biochemical DGK IC50 assay (ADP-Glo, lipid micelle substrate), DGKα. To be noted: 1 hour preincubation, 1 hour reaction, room temperature. The procedure, abridged: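 ADP-Glo luminescence quantified ADP produced after a 1 h room-temperature reaction of full-length DGKα on DAG/PS micelles, in HEPES buffer containing MgCl2, CaCl2, vanadate, BSA and Tween-20. IC50 values derive from activity inhibition over a compound concentration series.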
A general note: ADP-Glo first removes unused ATP, then detects ADP through luciferase.

In assay [2] the target is T2, Full length DGKζ (in-house protein M1-V929) (Homo sapiens, UniProt Q13574).
T2 construct: His (N); TEV site (N); made in house; host or cells: Sf9 insect cells (Bac-to-Bac baculovirus)
T2 sequence (Q13574 1-929 isoform Q13574-4): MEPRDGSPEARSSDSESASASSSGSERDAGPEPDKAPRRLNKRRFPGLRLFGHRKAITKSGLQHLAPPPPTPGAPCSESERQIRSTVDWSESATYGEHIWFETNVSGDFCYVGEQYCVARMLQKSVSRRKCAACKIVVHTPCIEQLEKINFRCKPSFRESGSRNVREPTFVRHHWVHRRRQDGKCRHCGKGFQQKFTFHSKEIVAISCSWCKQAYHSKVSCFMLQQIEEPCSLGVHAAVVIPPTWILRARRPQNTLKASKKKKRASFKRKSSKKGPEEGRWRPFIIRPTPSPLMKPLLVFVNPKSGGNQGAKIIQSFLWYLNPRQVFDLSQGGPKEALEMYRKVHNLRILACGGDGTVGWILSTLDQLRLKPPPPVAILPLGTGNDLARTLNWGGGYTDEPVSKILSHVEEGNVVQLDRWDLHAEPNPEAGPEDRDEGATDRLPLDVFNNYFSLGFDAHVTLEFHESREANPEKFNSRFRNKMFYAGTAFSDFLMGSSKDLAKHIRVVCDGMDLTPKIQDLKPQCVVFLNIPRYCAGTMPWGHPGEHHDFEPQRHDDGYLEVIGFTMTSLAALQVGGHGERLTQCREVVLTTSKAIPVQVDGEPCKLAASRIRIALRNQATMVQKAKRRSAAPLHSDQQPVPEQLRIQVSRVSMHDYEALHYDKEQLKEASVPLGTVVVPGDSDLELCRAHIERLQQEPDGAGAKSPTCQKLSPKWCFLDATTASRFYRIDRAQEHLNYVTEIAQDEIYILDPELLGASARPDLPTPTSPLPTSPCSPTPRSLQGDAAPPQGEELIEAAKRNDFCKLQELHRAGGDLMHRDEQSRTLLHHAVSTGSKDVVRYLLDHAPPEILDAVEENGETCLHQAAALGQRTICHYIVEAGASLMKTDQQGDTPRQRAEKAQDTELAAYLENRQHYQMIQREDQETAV
As to the kind of experiment: Biochemical DGK IC50 assay (ADP-Glo, lipid micelle substrate), DGKζ. Conditions: 1 hour preincubation, 1 hour reaction, room temperature. The procedure, abridged: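 Enzyme: full-length human DGKζ M1-V929, produced in baculovirus-infected Sf9 cells; substrate DAG/PS micelles. Buffer 50 mM HEPES, 10 mM MgCl2, 0.01 mM CaCl2, 0.1 mM Na3VO4.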

For 27 molecules, IC50 results are on record in patent publication US20260125378A2, “Heterocyclic Compounds” (BeOne Medicines I GmbH, priority 2023, published 2026).

Usually IC50 stands for the concentration at which inhibition is half-maximal. Read a low IC50 as higher potency.

T1 sequence (P23743 whole entry): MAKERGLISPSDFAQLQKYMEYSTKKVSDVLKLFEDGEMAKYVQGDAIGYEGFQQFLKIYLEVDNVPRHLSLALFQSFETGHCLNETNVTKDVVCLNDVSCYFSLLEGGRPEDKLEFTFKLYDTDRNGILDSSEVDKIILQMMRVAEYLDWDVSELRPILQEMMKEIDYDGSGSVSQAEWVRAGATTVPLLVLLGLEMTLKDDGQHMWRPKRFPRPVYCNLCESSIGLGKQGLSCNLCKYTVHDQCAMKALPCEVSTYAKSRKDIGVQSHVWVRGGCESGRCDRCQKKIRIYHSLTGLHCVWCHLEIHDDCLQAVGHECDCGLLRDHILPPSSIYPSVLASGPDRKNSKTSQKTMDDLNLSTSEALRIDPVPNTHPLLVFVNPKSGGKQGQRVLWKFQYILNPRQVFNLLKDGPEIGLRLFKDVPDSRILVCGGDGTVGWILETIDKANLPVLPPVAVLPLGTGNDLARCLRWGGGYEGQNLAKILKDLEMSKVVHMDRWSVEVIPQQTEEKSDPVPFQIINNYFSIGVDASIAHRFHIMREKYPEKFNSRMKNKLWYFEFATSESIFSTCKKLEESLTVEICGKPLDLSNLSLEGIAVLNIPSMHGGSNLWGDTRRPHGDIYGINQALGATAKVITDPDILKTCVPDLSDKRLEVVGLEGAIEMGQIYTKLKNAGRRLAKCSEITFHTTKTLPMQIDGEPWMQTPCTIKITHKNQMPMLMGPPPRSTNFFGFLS

Regarding `COC[C@H]1CN(C(C)c2ccc3c(c2)OCCO3)[C@H](C)CN1c1nc(=O)n(C)c2c1nc(CC#N)n2C` (single isomer, unassigned) [Compound A11a], the IC50 came out at 57800 nM in assay [1] and 764 nM in assay [2].
As to `COc1cc(F)ccc1C(C)N1C[C@H](C)N(c2cc(=O)n(C)c3c2nc(CC#N)n3C)C[C@H]1C` (single isomer, unassigned) [Compound A4a], the values for the IC50 in assay [1] and in assay [2] were more than 10000 nM and 566 nM, respectively.
In the case of `CCn1c(CC#N)nc2c(N3C[C@@H](C)N(C(C)c4ccc5c(c4)OC(F)(F)O5)C[C@@H]3C)nc(=O)n(C)c21` (single isomer, unassigned) [Compound A99a], the IC50 was found to be 34500 nM in assay [1] and 71 nM in assay [2].
`CC(c1ccc(F)cc1C(F)(F)F)N1C[C@H](C)N(c2cc(=O)n(C)c3[nH]c(CC#N)nc23)C[C@H]1C` (single isomer, unassigned) [Compound A9b]: the 50% inhibitory concentration (IC50) in assay [1] is more than 10000 nM; in assay [2] it was 169 nM.
In the case of `CCn1c(CC#N)nc2c(N3C[C@@H](C)N(C(C)c4ccc5ncc(C(F)(F)F)nc5c4)C[C@@H]3C)nc(=O)n(C)c21` (stereo partly drawn) [Compound A54, 2-(6-((2S,5R)-2,5-dimethyl-4-(1-(3-(trifluoromethyl)quinoxalin-6-yl)ethyl)piperazin-1-yl)-9-ethyl-3-methyl-2-oxo-3,9-dihydro-2H-purin-8-yl)acetonitrile], the figures for the half-inhibitory concentration (IC50) in assay [1] and in assay [2] were more than 150000 nM and 37 nM, respectively.
For the molecule `CCn1c(CC#N)nc2c(N3C[C@@H](C)N(C(C)c4ccc5c(c4)OC4(CCC4)O5)C[C@@H]3C)nc(=O)n(C)c21` (single isomer, unassigned) [Compound A169b], the concentration for half-maximal inhibition (IC50) amounted to 78200 nM in assay [1] and 455 nM in assay [2].
Turning to `CC[C@@H]1CN(c2nc(=O)n(C)c3c2nc(CC#N)n3CC)[C@@H](C)CN1C(C)c1ccc2c(n1)OC(C)(C)CO2` (single isomer, unassigned) [Compound A158a], the IC50 in assay [1] came out at 61900 nM; in assay [2] it was 8 nM.
The corresponding values for `CCn1c(CC#N)nc2c(N3C[C@@H](C)N(C(C)c4cc(C(F)(F)F)ccc4F)C[C@@H]3C)nc(=O)n(C)c21` (stereo partly drawn) [Compound A114, 2-(9-ethyl-6-((2S,5R)-4-(1-(2-fluoro-5-(trifluoromethyl)phenyl)ethyl)-2,5-dimethylpiperazin-1-yl)-3-methyl-2-oxo-3,9-dihydro-2H-purin-8-yl)acetonitrile] are 135000 nM and 246 nM.
Take `CC(c1cc(F)c2c(c1)OC(C)(C)CO2)N1C[C@H](C)N(c2nc(=O)n(C)c3c2nc(CC#N)n3C)C[C@H]1C` (mixture of isomers) [Compound A68, 2-(6-((2S,5R)-4-(1-(8-fluoro-3,3-dimethyl-2,3-dihydrobenzo[b][1,4]dioxin-6-yl)ethyl)-2,5-dimethylpiperazin-1-yl)-3,9-dimethyl-2-oxo-3,9-dihydro-2H-purin-8-yl)acetonitrile]: the half-inhibitory concentration (IC50) in assay [1] was determined as 43800 nM; in assay [2] it was 7 nM.
For `CCn1c(CC#N)nc2c(N3C[C@@H](C)N(C(C)c4cc(F)c5c(c4)OC(C)(C)O5)C[C@@H]3C)nc(=O)n(C)c21` (single isomer, unassigned) [Compound A173b], in that order: 83300 nM and 412 nM.
Take `CCn1c(CC#N)nc2c(N3C[C@@H](C)N(C(C)c4ccc(F)cc4C(F)(F)F)C[C@@H]3C)nc(=O)n(C)c21` (single isomer, unassigned) [Compound A35b]: the 50% inhibitory concentration (IC50) in assay [1] is more than 150000 nM; in assay [2], 24 nM.
As to `CCn1c(CC#N)nc2c(N3C[C@@H](C)N(C(C)c4ccc5c(c4)OC(C)(C)CO5)C[C@@H]3C)nc(=O)n(C)c21` (single isomer, unassigned) [Compound A60b], the IC50 in assay [1] was more than 150000 nM; in assay [2], 206 nM.
With `CCn1c(CC#N)nc2c(N3C[C@@H](C)N(C(C)c4ccc5c(c4F)OC(C)(C)O5)C[C@@H]3C)nc(=O)n(C)c21` (single isomer, unassigned) [Compound A175a], the 50% inhibitory concentration (IC50) in assay [1] was 37200 nM; in assay [2], 291 nM.
`CC(c1cc2c(cc1F)OCC(C)(C)O2)N1C[C@H](C)N(c2nc(=O)n(C)c3c2nc(CC#N)n3C)C[C@H]1C` (single isomer, unassigned) [Compound A69b]: the half-inhibitory concentration (IC50) in assay [1] came to 6090 nM; in assay [2], 147 nM.
Consider `COC[C@H]1CN(C(C)c2ccc3c(c2)OC(C)(C)CO3)[C@H](C)CN1c1nc(=O)n(C)c2c1nc(CC#N)n2C` (single isomer, unassigned) [Compound A12b], for which the half-inhibitory concentration (IC50) in assay [1] stood at 27400 nM; in assay [2], 57 nM.
Take `CCn1c(CC#N)nc2c(N3C[C@@H](C)N(C(C)c4ccnc(OC(C)C)c4)C[C@@H]3C)nc(=O)n(C)c21` (stereo partly drawn) [Compound A124, 2-(9-ethyl-6-((2S,5R)-4-(1-(2-isopropoxypyridin-4-yl)ethyl)-2,5-dimethylpiperazin-1-yl)-3-methyl-2-oxo-3,9-dihydro-2H-purin-8-yl)acetonitrile]: the IC50 stood at 111000 nM in assay [1] and 48 nM in assay [2].
The corresponding values for `CCn1c(CC#N)nc2c(N3C[C@@H](C)N(C(C)c4cnc5c(c4)OC(C)(C)CO5)C[C@@H]3C)nc(=O)n(C)c21` (stereo partly drawn) [Compound A76, 2-(6-((2S,5R)-4-(1-(2,2-dimethyl-2,3-dihydro-[1,4]dioxino[2,3-b]pyridin-7-yl)ethyl)-2,5-dimethylpiperazin-1-yl)-9-ethyl-3-methyl-2-oxo-3,9-dihydro-2H-purin-8-yl)acetonitrile] are more than 150000 nM and 419 nM.
With `CCn1c(CC#N)nc2c(N3C[C@@H](C)N(C(C)c4ccc5ccn(C)c(=O)c5c4)C[C@@H]3C)nc(=O)n(C)c21` (stereo partly drawn) [Compound A92, 2-(6-((2S,5R)-2,5-dimethyl-4-(1-(2-methyl-1-oxo-1,2-dihydroisoquinolin-7-yl)ethyl)piperazin-1-yl)-9-ethyl-3-methyl-2-oxo-3,9-dihydro-2H-purin-8-yl)acetonitrile], the IC50 in assay [1] is more than 150000 nM; in assay [2], 123 nM.
In the case of `CCn1c(CC#N)nc2c(N3C[C@@H](C)N(C(C)c4nc5c(cc4F)OCC(C)(C)O5)C[C@@H]3C)nc(=O)n(C)c21` (single isomer, unassigned) [Compound A161b], the results for the IC50 in assay [1] and in assay [2] were more than 150000 nM and 2630 nM, respectively.
Consider `CCn1c(CC#N)nc2c(N3C[C@@H](C)N(C(C)c4cc5c(cc4Cl)OC(C)(C)O5)C[C@@H]3C)nc(=O)n(C)c21` (stereo partly drawn) [Compound A170, 2-(6-((2S,5R)-4-(1-(6-chloro-2,2-dimethylbenzo[d][1,3]dioxol-5-yl)ethyl)-2,5-dimethylpiperazin-1-yl)-9-ethyl-3-methyl-2-oxo-3,9-dihydro-2H-purin-8-yl)acetonitrile], for which the IC50 in assay [1] was more than 150000 nM; in assay [2], 1180 nM.
The corresponding values for `CCn1c(CC#N)nc2c(N3C[C@@H](C)N(C(C)c4cccc(C(F)(F)F)c4)C[C@@H]3C)nc(=O)n(C)c21` (mixture of isomers) [Compound A42, 2-(6-((2S,5R)-2,5-dimethyl-4-(1-(3-(trifluoromethyl)phenyl)ethyl)piperazin-1-yl)-9-ethyl-3-methyl-2-oxo-3,9-dihydro-2H-purin-8-yl)acetonitrile] are 61900 nM and 42 nM.
For `CCn1c(CC#N)nc2c(N3C[C@@H](C)N(C(C)c4ccc5c(c4)CN(CC(F)(F)F)C5=O)C[C@@H]3C)nc(=O)n(C)c21` (stereo partly drawn) [Compound A82, 2-(6-((2S,5R)-2,5-dimethyl-4-(1-(1-oxo-2-(2,2,2-trifluoroethyl)isoindolin-5-yl)ethyl)piperazin-1-yl)-9-ethyl-3-methyl-2-oxo-3,9-dihydro-2H-purin-8-yl)acetonitrile], in that order: 9520 nM and 201 nM.
As to `COC[C@H]1CN(C(C)c2ccc3ncc(C)nc3c2)[C@H](C)CN1c1nc(=O)n(C)c2c1nc(CC#N)n2C` (single isomer, unassigned) [Compound A13b], the values for the 50% inhibitory concentration (IC50) in assay [1] and in assay [2] were more than 150000 nM and 54 nM, respectively.
With `CCn1c(CC#N)nc2c(N3C[C@@H](C)N(C(C)c4ccc5c(c4)OC(C)(C)CO5)C[C@@H]3C)nc(=O)n(CC)c21` (stereo partly drawn) [Compound A62, 2-(6-((2S,5R)-4-(1-(3,3-dimethyl-2,3-dihydrobenzo[b][1,4]dioxin-6-yl)ethyl)-2,5-dimethylpiperazin-1-yl)-3,9-diethyl-2-oxo-3,9-dihydro-2H-purin-8-yl)acetonitrile], the IC50 in assay [1] was more than 150000 nM; in assay [2], 279 nM.
On to `COC[C@H]1CN(C(C)c2ccc(F)cc2C(F)(F)F)[C@H](C)CN1c1nc(=O)n(C)c2c1nc(CC#N)n2C` (stereo partly drawn) [Compound A10, 2-(6-((2R,5R)-4-(1-(4-fluoro-2-(trifluoromethyl)phenyl)ethyl)-2-(methoxymethyl)-5-methylpiperazin-1-yl)-3,9-dimethyl-2-oxo-3,9-dihydro-2H-purin-8-yl)acetonitrile], for which the IC50 was more than 10000 nM in assay [1] and 25 nM in assay [2].
With `CC(c1ccc2nccnc2c1)N1C[C@H](C)N(c2cc(=O)n(C)c3c2nc(CC#N)n3C)C[C@H]1C` (single isomer, unassigned) [Compound A1a], the results for the IC50 in assay [1] and in assay [2] were 14900 nM and 9 nM, respectively.
Take `CCn1c(CC#N)nc2c(N3C[C@@H](C)N(C(C)c4ccc(C)c(C)n4)C[C@@H]3C)nc(=O)n(C)c21` (stereo partly drawn) [Compound A138, 2-(6-((2S,5R)-4-(1-(5,6-dimethylpyridin-2-yl)ethyl)-2,5-dimethylpiperazin-1-yl)-9-ethyl-3-methyl-2-oxo-3,9-dihydro-2H-purin-8-yl)acetonitrile]: the results for the IC50 in assay [1] and in assay [2] were more than 150000 nM and 949 nM, respectively.
